Test systems include RXF-631 renal; KM20L2 colon; DLD-1 colon; HOP-18 NSCLC; XF 498 CNS; M19-MEL melanoma; DMS 114 small cell lung; DMS 273 small cell lung; MDA-N.
What all share (assay): NCI tumour cell line growth inhibition, 48 h

Values joined by “and” are separate entries in the source; they are usually repeats but may differ in a detail not shown here. Equal values may be shown once.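 Test compounds were applied to cells in 96-well plates for 48 hours at 5 doses. The concentration for 50% growth inhibition is given as GI50. TGI: concentration producing complete growth inhibition.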 Some results are limits rather than exact numbers.

Results on 24 molecules are retold here after PubChem BioAssay (NCI).

For `C[C@]12CC[C@H](OC(=O)Cc3ccc(N(CCCl)CCCl)cc3)CC1CC[C@@H]1C2CC[C@]2(C)NC(=O)CCC12` (stereo partly specified), the TGI was 34.1 µM in the assay on RXF-631 renal; 23.7 µM with KM20L2 colon; 32.4 µM in the assay on DLD-1 colon; 31.4 µM in the assay with HOP-18 NSCLC; 28.3 µM in the assay with XF 498 CNS; 28.8 µM with M19-MEL melanoma. Further, the TGI worked out at 21.9 µM in the assay on DMS 114 small cell lung and 20.5 µM in the assay on DMS 273 small cell lung.

In the case of `CO[C@H](C(=O)O[C@H]1C(=O)N2CCC3CCC1C32C)c1ccccc1` (stereo partly specified), the TGI in the assay on KM20L2 colon, with DLD-1 colon, in the assay on HOP-18 NSCLC, with XF 498 CNS, in the assay with M19-MEL melanoma and in the assay with DMS 114 small cell lung was greater than 100 µM in each case.

`CCOC(=O)C1Nc2ccc([N+](=O)[O-])cc2[C@H]2OCC[C@@H]12` (stereo partly specified): the TGI with RXF-631 renal, in the assay on KM20L2 colon, in the assay on DLD-1 colon, with HOP-18 NSCLC, in the assay on XF 498 CNS and in the assay with M19-MEL melanoma was greater than 100 µM each time. Further, the TGI in the assay with DMS 114 small cell lung and with DMS 273 small cell lung was greater than 100 µM throughout.

In the assay on MDA-N, `Nc1ncnc2c1ncn2C1OC(CO)CC1O` (stereo unspecified) displayed a TGI greater than 100 µM.

In the case of `C/C(=N\NC(=O)C[n+]1ccccc1)c1sc(-c2nc(C)c(/C(C)=N/NC(=O)C[n+]3ccccc3)s2)nc1C`, the TGI in the assay on KM20L2 colon, in the assay on DLD-1 colon, in the assay with M19-MEL melanoma and in the assay with DMS 114 small cell lung was greater than 100 µM each time.

In the case of `CCOc1ccc(NC(=O)/C(Cc2nc3ccccc3[nH]c2=O)=N\O)cc1`, the TGI with KM20L2 colon, in the assay with DLD-1 colon, in the assay on M19-MEL melanoma, with DMS 114 small cell lung and in the assay on DMS 273 small cell lung was greater than 100 µM in each case.

As for `C/C(=N\N)C(CN1CCCCC1)C(c1ccccc1)c1c(O)c2ccccc2oc1=O` (stereo unspecified), the TGI in the assay with RXF-631 renal, in the assay on KM20L2 colon, in the assay on DLD-1 colon, in the assay on XF 498 CNS, with M19-MEL melanoma and in the assay on DMS 114 small cell lung was greater than 100 µM in each case. Also, the TGI in the assay with DMS 273 small cell lung is greater than 100 µM.

With `Clc1cc2nc[nH]c2cc1Cl`, the TGI with DLD-1 colon, with HOP-18 NSCLC, in the assay with XF 498 CNS, in the assay with M19-MEL melanoma, in the assay with DMS 114 small cell lung and in the assay with DMS 273 small cell lung was greater than 100 µM in each case.

Take `CC(=O)O[C@H]1CC[C@@]2(C)C(=CC[C@@H]3C2CC[C@]2(C)C(=O)NC(=O)CC32)C1` (stereo partly specified): the TGI with RXF-631 renal, with KM20L2 colon, in the assay with DLD-1 colon, in the assay on HOP-18 NSCLC, in the assay on XF 498 CNS and in the assay with M19-MEL melanoma was greater than 100 µM in each case. The TGI in the assay with DMS 114 small cell lung and in the assay with DMS 273 small cell lung was greater than 100 µM throughout.

For `O=S1(=O)OCc2ccccc21`, in the assay with MDA-N, the TGI was greater than 100 µM.

As to `O=C1C[C@@H]2[C@@H](C=CC23CC3)N1O`, the TGI in the assay on KM20L2 colon, in the assay with DLD-1 colon, in the assay with HOP-18 NSCLC, with M19-MEL melanoma and in the assay on DMS 273 small cell lung was greater than 100 µM throughout.

`N#CC1=C(c2ccccc2)NN(Cc2ccccc2)C(c2ccc(Cl)cc2)CC1=O` (stereo unspecified): the TGI is 85.3 µM with RXF-631 renal; 75.8 µM in the assay on KM20L2 colon; 49.1 µM with DLD-1 colon; 73.5 µM in the assay with HOP-18 NSCLC; 50.1 µM with XF 498 CNS; greater than 100 µM in the assay with DMS 114 small cell lung. Further, the TGI with DMS 273 small cell lung came out at 52.8 µM.

In the assay with MDA-N, `COc1ccc(-c2cc(=O)c3c(OC)c(O)c(OC)cc3o2)cc1` had a TGI greater than 100 µM.

Turning to `CC(C)COC(=O)N1N=NC2C3CC(=O)C(O3)C21` (stereo unspecified), the TGI in the assay on RXF-631 renal, in the assay with KM20L2 colon, in the assay with DLD-1 colon, in the assay on HOP-18 NSCLC, with M19-MEL melanoma and in the assay with DMS 114 small cell lung was greater than 100 µM throughout. The same molecule displayed a TGI in the assay with DMS 273 small cell lung greater than 100 µM.

`O=C(CC(O)c1cccnc1)CC(O)c1cccnc1` (stereo unspecified): the TGI with MDA-N stood at 25.5 µM.

`CC(=O)OC1COC(n2c(O)c(N=Nc3ccc([N+](=O)[O-])cc3)c3cc(Br)c([N+](=O)[O-])cc32)C(OC(C)=O)C1OC(C)=O` (stereo unspecified): the TGI in the assay with RXF-631 renal, with KM20L2 colon, in the assay with DLD-1 colon, in the assay with HOP-18 NSCLC, in the assay with XF 498 CNS and in the assay with M19-MEL melanoma was greater than 100 µM throughout. Further, the TGI with DMS 273 small cell lung was greater than 100 µM.

On to `S=P(C1CCCCC1)(C1CCCCC1)C(c1cccnc1)N1CCCC1` (stereo unspecified), for which the TGI in the assay with MDA-N was 39.3 µM.

`COc1ccc(C(=C(C#N)C#N)c2ccc(OC)cc2)cc1`: the TGI in the assay with KM20L2 colon, in the assay on DMS 114 small cell lung and in the assay with DMS 273 small cell lung was greater than 100 µM in each case.

Consider `CC1OC(OC23C(=O)CC(C)(O)CC2(O)C=CC2=C3C(=O)c3ccc(C4CC(OC5CCC(OC6CC(O)C(O)C(C)O6)C(C)O5)C(O)C(C)O4)c(O)c3C2=O)CCC1O` (stereo unspecified), for which the TGI in the assay with RXF-631 renal was 35.6 µM and 26.5 µM; in the assay with KM20L2 colon it was 36.3 µM and 34.5 µM; with DLD-1 colon it was 26.8 µM and 23.8 µM; in the assay on HOP-18 NSCLC it was 31.3 µM and 30.8 µM; with XF 498 CNS it was 32.9 µM and 32.1 µM; in the assay with DMS 114 small cell lung, 31 µM and 21.2 µM. In addition, in the assay with DMS 273 small cell lung, the TGI is 36.3 µM and 10 µM. Further, the GI50 was 16.5 µM and 8.11 µM in the assay on DMS 114 small cell lung; 20.5 µM and 3.18 µM in the assay with DMS 273 small cell lung.

Turning to `CN1CCN2c3ccccc3CC(C#N)(C#N)C2C1` (stereo unspecified), the TGI with RXF-631 renal, in the assay with KM20L2 colon, in the assay with DLD-1 colon, in the assay with HOP-18 NSCLC, in the assay with M19-MEL melanoma and in the assay on DMS 114 small cell lung was greater than 100 µM each time. Further, in the assay on DMS 273 small cell lung, the TGI was greater than 100 µM.

In the case of `CN(C)C(=O)C(NCCO)c1ccccc1` (stereo unspecified), in the assay on MDA-N, the TGI was greater than 100 µM.

In the case of `OCC(O)C(O)C(O)c1nn[nH]n1` (stereo unspecified), the TGI with DLD-1 colon, with M19-MEL melanoma, in the assay on DMS 114 small cell lung and in the assay on DMS 273 small cell lung was greater than 100 µM each time.

Turning to `COc1ccc2c3c(ccc2c1)NC(C(=O)O)CC3` (stereo unspecified), the TGI in the assay on MDA-N was greater than 100 µM.

Regarding `CC(C)(C)c1cc(O)c2c(c1O)C(=O)CCC2`, the TGI was greater than 100 µM in the assay on RXF-631 renal; greater than 100 µM with KM20L2 colon; greater than 100 µM in the assay with DLD-1 colon; greater than 100 µM in the assay on HOP-18 NSCLC; 71.2 µM in the assay on XF 498 CNS; 84.9 µM in the assay with M19-MEL melanoma. The values for the TGI in the assay on DMS 114 small cell lung and in the assay with DMS 273 small cell lung were 69.1 µM and greater than 100 µM, respectively.
